Source: patent US20190029257A1, “APPLICATION FOR HERBICIDE-TOLERANT PROTEIN” (BEIJING DABEINONG TECHNOLOGY GROUP CO., LTD., priority 2016, published 2019)

Key:
Format in all cases: in vivo
[1] = system: At chloroplastic ALT-3-01 T1 plants; assay: Herbicide tolerance of Arabidopsis thaliana T1 plants (spray, resistance classes counted); conditions: 18 g ai/ha (1x Hal.); number of plants 14 days after spraying; Total 30
Source text: (§1) T1 transformants were initially selected from the background of untransformed seeds using a glufosinate selection scheme. About 40000 T1 seeds were screened, and 380 T1 positive transformants (PAT gene) were identified with a transformation efficiency of about 0.95%. The plants that were transformed with the recombinant expression vector DBN100632 were Arabidopsis thaliana plants having an ALT-1-01 nucleotide sequence located in the cytoplasm introduced (At cytoplasmic ALT-1-01), and the plants that were transformed with the recombinant expression vector DBN100631 were Arabidopsis thaliana plants having an ALT-1-01 nucleotide sequence located in the chloroplast introduced (At chloroplastic ALT-1-01); the plants that were transformed with the recombinant expression vector DBN100634 were Arabidopsis thaliana plants having an ALT-2-01 nucleotide sequence located in the cytoplasm introduced (At cytoplasmic ALT-2-01), and the plants that were transformed with the recombinant expression vector DBN100633 were Arabidopsis thaliana plants having an ALT-2-01 nucleotide sequence located in the chloroplast introduced (At chloroplastic ALT-2-01); and the plants that were transformed with the recombinant expression vector DBN100636 were Arabidopsis thaliana plants having an ALT-3-01 nucleotide sequence located in the cytoplasm introduced (At cytoplasmic ALT-3-01), and the plants that were transformed with the recombinant expression vector DBN100635 were Arabidopsis thaliana plants having an ALT-3-01 nucleotide sequence located in the chloroplast introduced (At chloroplastic ALT-3-01). The herbicide tolerance effects of At cytoplasmic ALT-1-01 T1 plants, At chloroplastic ALT-1-01 T1 plants, At cytoplasmic ALT-2-01 T1 plants, At chloroplastic ALT-2-01 T1 plants, At cytoplasmic ALT-3-01 T1 plants, At chloroplastic ALT-3-01 T1 plants and wild-type Arabidopsis thaliana plants on halosulfuron-methyl were detected (14 days after sowing), respectively.
(§2) […] Plants were counted for the resistance situations 14 days after spraying: those having a consistent growth status with the blank solvent (water) group after 14 days were classified as highly resistant plants, those having a bolting height less than ½ of that of the blank solvent (water) group after 14 days were classified as moderately resistant plants, those still not capable of bolting after 14 days were classified as poorly resistant plants, and those dead after 14 days were classified as non-resistant plants. Since each Arabidopsis thaliana T1 plant was an independent transformation event, a significant difference in individual T1 responses could be expected at a given dose.
as §2, with “situation” for “situations”

[2] = system: At cytoplasmic ALT-1-01 T1 plants; assay: as above; conditions: 18 g ai/ha (1x Hal.); number of plants 14 days after spraying; Total 31
Source text: as §1, §2
as §2, with “situation” for “situations”

[3] = system: At cytoplasmic ALT-2-01 T1 plants; assay: as above; conditions: 18 g ai/ha (1x Hal.); number of plants 14 days after spraying; Total 28
Source text: as §1, §2
as §2, with “situation” for “situations”

[4] = system: At chloroplastic ALT-1-01 T1 plants; assay: as above; conditions: 18 g ai/ha (1x Hal.); number of plants 14 days after spraying; Total 31
Source text: as §1, §2
as §2, with “situation” for “situations”

[5] = system: At chloroplastic ALT-2-01 T1 plants; assay: as above; conditions: 18 g ai/ha (1x Hal.); number of plants 14 days after spraying; Total 31
Source text: as §1, §2
as §2, with “situation” for “situations”

[6] = system: Gm chloroplastic ALT-2-01 soybean plants; assay: Halosulfuron-methyl tolerance of soybean plants (damage degree); conditions: 34 g ai/ha (1x Hal.); for Average damage % 3 DAT: 3 days after spraying; for Average damage % 7 DAT: 7 days after spraying; for Average damage % 14 DAT: 14 days after spraying; for Average damage % 21 DAT: 21 days after spraying
Source text: (§3) The herbicide tolerance effects of Gm cytoplasmic ALT-1-01 soybean plants, Gm chloroplastic ALT-1-01 soybean plants, Gm cytoplasmic ALT-2-01 soybean plants, Gm chloroplastic ALT-2-01 soybean plants, Gm cytoplasmic ALT-3-01 soybean plants, Gm chloroplastic ALT-3-01 soybean plants and wild-type soybean plants on halosulfuron-methyl were detected (at seedling stage), respectively.
(§4) Gm cytoplasmic ALT-1-01 soybean plants, Gm chloroplastic ALT-1-01 soybean plants, Gm cytoplasmic ALT-2-01 soybean plants, Gm chloroplastic ALT-2-01 soybean plants, Gm cytoplasmic ALT-3-01 soybean plants, Gm chloroplastic ALT-3-01 soybean plants and wild-type soybean plants were respectively taken and sprayed with halosulfuron-methyl (34 g ai/ha, 1-fold field concentration) and a blank solvent (water). The damage degree caused by the herbicide was measured for each plant according to the leaf curl degree and the growth point damage degree 3 days after spraying (3 DAT), 7 days after spraying (7 DAT), 14 days after spraying (14 DAT) and 21 days after spraying (21 DAT), respectively: considering conditions of leaves being flat as the untreated plants and growth points being intact as having a damage degree of 0%; considering conditions of veins being locally browned, new leaves being malformed and plant growth being slow as having a damage degree of 50%; and considering conditions of veins being purple to whole plant being dead and growth points being browned and dry as having a damage degree of 100%. There were 2 strains in Gm cytoplasmic ALT-1-01 soybean plants in total (S1 and S2), 2 strains in Gm chloroplastic ALT-1-01 soybean plants in total (S3 and S4), 2 strains in Gm cytoplasmic ALT-2-01 soybean plants in total (S5 and S6), 2 strains in Gm chloroplastic ALT-2-01 soybean plants in total (S7 and S8), 2 strains in Gm cytoplasmic ALT-3-01 soybean plants in total (S9 and S10), 2 strains in Gm chloroplastic ALT-3-01 soybean plants in total (S11 and S12), and 1 strain in wild-type soybean plants (CK1) in total; and 10-15 plants were selected from each strain and tested.

[7] = system: Gm chloroplastic ALT-1-01 soybean plants; assay: as above; conditions: 34 g ai/ha (1x Hal.); for Average damage % 3 DAT: 3 days after spraying; for Average damage % 7 DAT: 7 days after spraying; for Average damage % 14 DAT: 14 days after spraying; for Average damage % 21 DAT: 21 days after spraying
Source text: as §3, §4

COC(=O)c1c(Cl)nn(C)c1S(=O)(=O)NC(=O)Nc1nc(OC)cc(OC)n1 [halosulfuron-methyl, 3-chlorine-5-(4,6-dimethoxypyrimidine-2-aminocarbonylaminosulphonyl)-1-methylpyrazole-4-carboxylic acid methyl ester] was tested. Which Highly resistant [1] did it give?
Its Highly resistant is 1.

And the Moderately resistant [1]?
The Moderately resistant was 6.

And the Non-resistant [1]?
The Non-resistant was 5.

And the Poorly resistant [1]?
The Poorly resistant was 5.

What about the Moderately resistant [2] of the same compound?
The Moderately resistant was 6.

And the Non-resistant [2]?
Its Non-resistant is 15.

What about the Poorly resistant [2] of the same compound?
The Poorly resistant was 5.

And the Highly resistant [3]?
The Highly resistant was 1.

And the Moderately resistant [3]?
Its Moderately resistant is 6.

What about the Non-resistant [3] of the same compound?
The Non-resistant was 5.

And the Poorly resistant [3]?
Its Poorly resistant is 4.

And the Highly resistant [4]?
Its Highly resistant is 1.

And the Moderately resistant [4]?
The Moderately resistant was 2.

What about the Non-resistant [4] of the same compound?
The Non-resistant was 7.

And the Poorly resistant [4]?
Its Poorly resistant is 5.

What about the Highly resistant [5] of the same compound?
Its Highly resistant is 1.

And the Moderately resistant [5]?
Its Moderately resistant is 4.

And the Non-resistant [5]?
Its Non-resistant is 5.

And the Poorly resistant [5]?
The Poorly resistant was 7.

What about the “Average damage % 3 DAT” value ([6]; strain S7) of the same compound?
Its value is 10%.

And the “Average damage % 7 DAT” value ([6]; strain S7)?
The value was 4%.

What about the “Average damage % 14 DAT” value ([6]; strain S7) of the same compound?
Its value is 0%.

What about the “Average damage % 21 DAT” value ([6]; strain S7) of the same compound?
Its value is 0%.

What about the “Average damage % 3 DAT” value ([6]; strain S8) of the same compound?
The value was 9%.

And the “Average damage % 7 DAT” value ([6]; strain S8)?
The value was 5%.

And the “Average damage % 14 DAT” value ([6]; strain S8)?
The value was 0%.

What about the “Average damage % 21 DAT” value ([6]; strain S8) of the same compound?
Its value is 0%.

What about the “Average damage % 3 DAT” value ([7]; strain S3) of the same compound?
Its value is 10%.

What about the “Average damage % 7 DAT” value ([7]; strain S3) of the same compound?
Its value is 5%.

What about the “Average damage % 14 DAT” value ([7]; strain S3) of the same compound?
Its value is 0%.

And the “Average damage % 21 DAT” value ([7]; strain S3)?
The value was 0%.

What about the “Average damage % 3 DAT” value ([7]; strain S4) of the same compound?
Its value is 11%.

What about the “Average damage % 7 DAT” value ([7]; strain S4) of the same compound?
Its value is 5%.

And the “Average damage % 14 DAT” value ([7]; strain S4)?
Its value is 0%.

And the “Average damage % 21 DAT” value ([7]; strain S4)?
The value was 0%.
